Here are results for eleven molecules from ChEMBL document CHEMBL5137012, “The role of the maleimide ring system on the structure-activity relationship of showdomycin” (Eur J Med Chem, 2022).

Activity calls are given as the source filed them. The rule behind the calls is not given here.

Data set [1] concerns Escherichia coli. Briefly: Antibacterial activity against Escherichia coli K12 expressing modified luxABCDE genes assessed as reduction in bacterial growth by measuring reduction in bioluminescence at 40 uM incubated for 16 hrs by microplate reader analysis. Format: functional, organism-based.
Data set [2] deals with Escherichia coli. In words: Antibacterial activity against Escherichia coli K12 expressing modified luxABCDE genes assessed as reduction in bacterial growth by measuring reduction in optical density at 40 uM incubated for 16 hrs by microplate reader analysis. Format: functional, organism-based.
Data set [3] concerns Escherichia coli. Briefly: Antibacterial activity against Escherichia coli K12 expressing modified luxABCDE genes assessed as reduction in bacterial growth by measuring reduction in bioluminescence at 0.002 to 2.5 mM incubated for 16 hrs by microplate reader analysis. To be noted: dose 0.002-2.5 mM. It counts as functional, organism-based.
In data set [4] the test system is HEK-293T. In words: Cytotoxicity against HEK293T cells assessed as morphological changes at 30 uM. It counts as toxicity, cell-based. The conditions noted are these: human.
Data set [5] relates to Escherichia coli. In words: Antibacterial activity against Escherichia coli K12 expressing modified luxABCDE genes assessed as reduction in bacterial growth by measuring reduction in optical density at 0.002 to 2.5 mM incubated for 16 hrs by microplate reader analysis. It counts as functional, organism-based. The conditions noted are these: dose 0.002-2.5 mM.
Data set [6] deals with HEK-293T. Briefly: Cytotoxicity against HEK293T cells at 30 uM incubated for 24 hrs by LDH assay. Format: toxicity, cell-based. The conditions noted are these: human.
The subject of data set [7] is HEK-293T. Briefly: Cytotoxicity against HEK293T cells assessed as reduction in viable cells at 125 uM incubated for 24 hrs by CCK-8 assay. It counts as toxicity, cell-based. The conditions noted are these: human.
Data set [8] concerns Escherichia coli. Briefly: Bactericidal activity against Escherichia coli K12 expressing modified luxABCDE genes assessed as reduction in luminescence at 0.625 mM incubated for 16 hrs by microplate reader analysis. It counts as functional, organism-based.
Data set [9] is filed under the species Homo sapiens. In words: Substrate activity at human mitochondria RNA polymerase assessed as extension of transcription elongation complex by measuring incorporation into RNA in place of UTP at 100 uM incubated for 1 min in presence of GTP by PAGE analysis.
For data set [10], the system named is Saccharomyces cerevisiae. In words: Inhibition of Saccharomyces cerevisiae RNA polymerase 2-mediated processive transcription elongation at polythymidine sequence at 2 mM incubated for 5 mins by PAGE analysis.
Data set [11] concerns Escherichia coli. In words: Substrate activity at Escherichia coli RNA polymerase assessed as extension of transcription elongation complex by measuring incorporation into RNA in place of UTP at 100 uM incubated for 1 min in presence of GTP by PAGE analysis.
Data set [12] deals with Escherichia coli. Briefly: Inhibition of Escherichia coli RNA polymerase-mediated processive transcription elongation at polythymidine sequence at 2 mM incubated for 5 mins by PAGE analysis.
In data set [13] the test system is Saccharomyces cerevisiae. In words: Substrate activity at Saccharomyces cerevisiae RNA polymerase 2 assessed as extension of transcription elongation complex by measuring incorporation into RNA in place of UTP at 100 uM incubated for 1 min in presence of GTP by PAGE analysis.
Data set [14] concerns Escherichia coli. In words: Antibacterial activity against Escherichia coli K12 expressing modified luxABCDE genes assessed as reduction in bacterial growth by measuring reduction in bioluminescence incubated for 16 hrs by microplate reader analysis. Format: functional, organism-based. To be noted: DDE = dose-dependent effect.
In data set [15] the test system is Escherichia coli. In words: Antibacterial activity against Escherichia coli K12 expressing modified luxABCDE genes assessed as reduction in bacterial growth by measuring reduction in optical density incubated for 16 hrs by microplate reader analysis. To be noted: DDE = dose-dependent effect. Format: functional, organism-based.
Data set [16] relates to HEK-293T. Briefly: Cytotoxicity against HEK293T cells at 125 uM incubated for 24 hrs by LDH assay. Format: toxicity, cell-based. The conditions noted are these: human.
The subject of data set [17] is HEK-293T. In words: Cytotoxicity against HEK293T cells assessed as morphological changes at 125 uM. It counts as toxicity, cell-based. The conditions noted are these: human.
Data set [18] has as its system Escherichia coli. Briefly: Bactericidal activity against Escherichia coli K12 expressing modified luxABCDE genes assessed as reduction in luminescence at 2.5 mM incubated for 16 hrs by microplate reader analysis. It counts as functional, organism-based.
For data set [19], the system named is Escherichia coli. In words: Antibacterial activity against Escherichia coli K12 expressing modified luxABCDE genes assessed as reduction in bacterial growth by measuring reduction in optical density at 0.002 to 2.5 mM incubated for 16 hrs in presence of uridine at 0.002 to 12.5 mM by microplate reader analysis. The conditions noted are these: dose 0.002-2.5 mM. It counts as functional, organism-based.

Data set [20] relates to HEK-293T. In words: Cytotoxicity against HEK293T cells assessed as reduction in viable cells at 500 uM incubated for 24 hrs by CCK-8 assay. It counts as toxicity, cell-based. To be noted: human.
The subject of data set [21] is Escherichia coli. Briefly: Antibacterial activity against Escherichia coli K12 expressing modified luxABCDE genes assessed as reduction in bacterial growth by measuring reduction in bioluminescence at 0.002 to 2.5 mM incubated for 16 hrs in presence of uridine at 0.002 to 12.5 mM by microplate reader analysis. It counts as functional, organism-based. The conditions noted are these: dose 0.002-2.5 mM.

For data set [22], the system named is Escherichia coli. Briefly: Antibacterial activity against Escherichia coli K12 expressing modified luxABCDE genes assessed as reduction in bacterial growth by measuring reduction in bioluminescence at low concentrations measured after 250 mins by microplate reader analysis. It counts as functional, organism-based.
For data set [23], the species on record is Homo sapiens. Briefly: Substrate activity at human mitochondria RNA polymerase assessed as two nucleotide extension of transcription elongation complex by measuring incorporation of 4-ethylthioshowdomycin-5'-monophosphate into RNA at 100 uM incubated for 1 min in presence of GTP by ATTO680 fluorophore based PAGE analysis.
The species named for data set [24] is Homo sapiens. In words: Substrate activity at human mitochondria RNA polymerase assessed as one nucleotide extension of transcription elongation complex by measuring incorporation of 4-ethylthioshowdomycin-5'-monophosphate into RNA at 100 uM incubated for 1 min by ATTO680 fluorophore based PAGE analysis.
The subject of data set [25] is Escherichia coli. In words: Substrate activity at Escherichia coli RNA polymerase assessed as one nucleotide extension of transcription elongation complex by measuring incorporation of 4-ethylthioshowdomycin-5'-monophosphate into RNA at 100 uM incubated for 1 min by ATTO680 fluorophore based PAGE analysis.

Consider `NC[C@H]1O[C@H](O[C@H]2[C@H](O)[C@@H](O[C@H]3O[C@H](CO)[C@@H](O)[C@H](N)[C@H]3O)[C@H](N)C[C@@H]2N)[C@H](O)[C@@H](O)[C@@H]1O`, for which the outcome in the data set on Escherichia coli [1] and in the data set on Escherichia coli [2] was Active.

Take `O=C1C=C([C@@H]2O[C@H](CO)[C@@H](O)[C@H]2O)C(=O)N1`: the result with Escherichia coli [3], with Escherichia coli [5] and with Escherichia coli [8] was Active. The Activity entry with HEK-293T [4], in the data set with HEK-293T [6] and in the data set on HEK-293T [7] was “Toxic” in each case.

In the case of `O=C1NC(=O)C([C@@H]2O[C@H](COP(=O)(O)OP(=O)(O)OP(=O)(O)O)[C@@H](O)[C@H]2O)=C1Br`, the result in the data set filed under Homo sapiens [9], in the data set on Escherichia coli [11] and with Saccharomyces cerevisiae [13] was Active. In addition, the inhibition entry with Saccharomyces cerevisiae [10] and in the data set on Escherichia coli [12] was “Active” throughout.

Turning to `CSC1=C([C@@H]2O[C@H](COP(=O)(O)OP(=O)(O)OP(=O)(O)O)[C@@H](O)[C@H]2O)C(=O)NC1=O`, the outcome in the data set listed under Homo sapiens [9], with Escherichia coli [11] and in the data set on Saccharomyces cerevisiae [13] was Active. Also, the inhibition entry in the data set on Saccharomyces cerevisiae [10] and in the data set with Escherichia coli [12] was “Active” throughout.

As to `C[C@@H](SC1=C([C@@H]2O[C@H](COP(=O)(O)OP(=O)(O)OP(=O)(O)O)[C@@H](O)[C@H]2O)C(=O)NC1=O)C(=O)O`, in the data set with Escherichia coli [11], the result was Active.

As to `CN[C@@H]1[C@@H](O[C@H]2O[C@H](CO)[C@@H](N)[C@H](O)[C@H]2O)O[C@H]2C[C@@H](N)[C@@H](O[C@H]3[C@H](O)[C@@H](O)[C@H](N)C[C@@H]3N)O[C@@H]2[C@@H]1O`, the outcome with Escherichia coli [1] and with Escherichia coli [2] was Active.

Consider `N=C(N)NCC(=O)N(O)C(CCC(N)=O)C(=O)NC[C@H]1O[C@@H](c2c[nH]c(=O)[nH]c2=O)[C@H](O)[C@@H]1O` (stereo partly drawn), for which the Activity result in the data set with Escherichia coli [14] and in the data set on Escherichia coli [15] was “Dde” each time.

On to `CCSC1=C([C@@H]2O[C@H](CO)[C@@H](O)[C@H]2O)C(=O)NC1=O`, for which the result with Escherichia coli [3], with Escherichia coli [18], in the data set with Escherichia coli [19], in the data set on Escherichia coli [5], in the data set on Escherichia coli [21] and with Escherichia coli [22] was Active. In addition, the Activity result in the data set on HEK-293T [16], in the data set on HEK-293T [17] and in the data set on HEK-293T [20] was “Toxic” each time.

In the case of `C[Se]C1=C([C@@H]2O[C@H](COP(=O)(O)OP(=O)(O)OP(=O)(O)O)[C@@H](O)[C@H]2O)C(=O)NC1=O`, the outcome in the data set filed under Homo sapiens [9], with Escherichia coli [11] and in the data set with Saccharomyces cerevisiae [13] was Active. The inhibition result with Saccharomyces cerevisiae [10] and in the data set on Escherichia coli [12] was “Active” in each case.

`C[C@H](SC1=C([C@@H]2O[C@H](COP(=O)(O)OP(=O)(O)OP(=O)(O)O)[C@@H](O)[C@H]2O)C(=O)NC1=O)C(=O)O`: the outcome with Escherichia coli [11] was Active.

On to `CCSC1=C([C@@H]2O[C@H](COP(=O)(O)OP(=O)(O)OP(=O)(O)O)[C@@H](O)[C@H]2O)C(=O)NC1=O`, for which the result in the data set filed under Homo sapiens [23], in the data set filed under Homo sapiens [24] and in the data set with Escherichia coli [25] was Active. For the same molecule, the inhibition result in the data set on Saccharomyces cerevisiae [10] and with Escherichia coli [12] was “Active” throughout.
